The data set can be described thus: Pharmacokinetics of Free Base Forms I and II in male Beagle dogs after a single oral dose; Compound 1 plasma concentrations by LC-MS/MS. The class given is in vivo. As for the experimental part: In this study, male Beagle dogs were administered Free Base Form I and Free Base Form II at 25 mg/kg and 100 mg/kg (0.5% carboxymethylcellulose (CMC) and 0.1% Tween in water at pH 7). The dogs were fasted overnight and then offered food one hour prior to oral administration of the form. Blood samples were collected at predetermined timepoints up to 48 hours. Compound 1 plasma concentrations were determined by liquid chromatography with tandem mass spectrometry (LC-MS/MS) methods.

The mark [1] stands for this setting: 25 mg/kg dose, versus Free Base Form I.
Where [2] appears, read: 100 mg/kg dose, versus Free Base Form I.

We go through 1 molecule from patent US20250000856A1, “CRYSTALLINE FORMS OF N-((1R,3S)-3-(4-ACETYLPIPERAZIN-1-YL)CYCLOHEXYL)-4-FLUORO-7-METHYL-1H-INDOLE-2-CARBOXAMIDE” (Epizyme, Inc., priority 2021, published 2025).

The structures appear in SMILES notation.

Turning to `CC(=O)N1CCN([C@H]2CCC[C@@H](NC(=O)c3cc4c(F)ccc(C)c4[nH]3)C2)CC1` [Free Base Form II, N-((1R,3S)-3-(4-acetylpiperazin-1-yl)cyclohexyl)-4-fluoro-7-methyl-1H-indole-2-carboxamide], under setting [1], the “Compound 1 AUC0-inf greater than that of Free Base Form I” value is around 20% and the “Compound 1 Cmax greater than that of Free Base Form I” value is around 40%. In addition, under setting [2], the “AUC0-inf greater than that of Free Base Form I” value worked out at 3.1 fold and the “Cmax greater than that of Free Base Form I” value is listed as 1.8 fold. For the setting “oral 25 and 100 mg/kg, difference dose-dependent”, the “exposure in dogs compared with Free Base Form I” value is “unexpectedly greater exposure”.
